Measured values from ChEMBL document CHEMBL2010750, “Penicillin inhibitors of purple acid phosphatase” (Bioorg Med Chem Lett, 2012).
Active and inactive are the calls of the source. The rule behind the calls is not given here.

Species on record: Sus scrofa
Test: Uncompetitive inhibition of pig PAP using para-nitrophenol as substrate at pH 4.9 preincubated for 10 mins by UV-visible spectrophotometry

Structure (SMILES)	Kiuc
CC1(C)S[C@@H]2[C@H](NC(=O)c3ccc(C(=O)c4ccccc4)cc3)C(=O)N2[C@H]1C(=O)O	inactive
CC1(C)S[C@@H]2[C@H](NC(=O)c3ccc(C(=O)c4cccc([N+](=O)[O-])c4)cc3)C(=O)N2[C@H]1C(=O)O	inactive
CC1(C)S[C@@H]2[C@H](NC(=O)c3ccc(C(=O)c4ccccc4Cl)cc3)C(=O)N2[C@H]1C(=O)O	inactive
CC(=O)Oc1ccc(C(=O)N[C@@H]2C(=O)N3[C@@H]2SC(C)(C)[C@@H]3C(=O)O)cc1	inactive
CC1(C)S[C@@H]2[C@H](NC(=O)Cc3ccccc3)C(=O)N2[C@H]1C(=O)O	inactive
CC1(C)S[C@@H]2[C@H](NC(=O)c3ccc(C(=O)c4ccc([N+](=O)[O-])cc4)cc3)C(=O)N2[C@H]1C(=O)O	inactive
CC1(C)S[C@@H]2[C@H](NC(=O)c3ccc(C(=O)c4ccc(Cl)cc4)cc3)C(=O)N2[C@H]1C(=O)O	inactive
CC1(C)S[C@@H]2[C@H](NC(=O)c3cccc(C(=O)N4CCCCC4)c3)C(=O)N2[C@H]1C(=O)O	491 µM
Cc1ccc(C(=O)c2cccc(C(=O)N[C@@H]3C(=O)N4[C@@H]3SC(C)(C)[C@@H]4C(=O)O)c2)cc1	inactive

Species on record: Sus scrofa
Test: Competitive inhibition of pig PAP using para-nitrophenol as substrate at pH 4.9 preincubated for 10 mins by UV-visible spectrophotometry

Structure (SMILES)	Kic
CC1(C)S[C@@H]2[C@H](NC(=O)c3ccc(C(=O)c4ccccc4)cc3)C(=O)N2[C@H]1C(=O)O	26 µM
CC1(C)S[C@@H]2[C@H](NC(=O)c3ccc(C(=O)c4cccc([N+](=O)[O-])c4)cc3)C(=O)N2[C@H]1C(=O)O	23 µM
CC1(C)S[C@@H]2[C@H](NC(=O)c3ccc(C(=O)c4ccccc4Cl)cc3)C(=O)N2[C@H]1C(=O)O	32 µM
CC(=O)Oc1ccc(C(=O)N[C@@H]2C(=O)N3[C@@H]2SC(C)(C)[C@@H]3C(=O)O)cc1	53 µM
CC1(C)S[C@@H]2[C@H](NC(=O)Cc3ccccc3)C(=O)N2[C@H]1C(=O)O	inactive
CC1(C)S[C@@H]2[C@H](NC(=O)c3ccc(C(=O)c4ccc([N+](=O)[O-])cc4)cc3)C(=O)N2[C@H]1C(=O)O	17 µM
CC1(C)S[C@@H]2[C@H](NC(=O)c3ccc(C(=O)c4ccc(Cl)cc4)cc3)C(=O)N2[C@H]1C(=O)O	12 µM
CC1(C)S[C@@H]2[C@H](NC(=O)c3cccc(C(=O)N4CCCCC4)c3)C(=O)N2[C@H]1C(=O)O	241 µM
Cc1ccc(C(=O)c2cccc(C(=O)N[C@@H]3C(=O)N4[C@@H]3SC(C)(C)[C@@H]4C(=O)O)c2)cc1	60 µM
